Experimental data taken from PubChem BioAssay AID449750 (Broad Institute, 2010).
The source made the active and inactive calls. No rule for the calls is given here.

Assay: non-covalent RecA intein splicing inhibitors, dose response, biochemical, cell-free, fluorescence, secondary screen (AID 449750)

Compound | AC50
CC(=O)N(C1CC(C)C(C#N)(C#N)C1(C#N)C#N)N(C)C (stereo unspecified) | > 38 µM (inactive)
Cc1cc(O)ccc1Nc1nc(-c2cccs2)cs1 | 31.7 µM
Cc1cccc(C(=O)c2cnc3ccccc3c2-c2ccccc2)c1 | 14.4 µM
Cc1ccc(C(=O)NC2(O)C(=O)c3ccccc3C2=O)cc1C | 6.09 µM
CN1CCN(C(c2ccc(Cl)cc2)c2cc(Cl)c3cccnc3c2O)CC1 (stereo unspecified) | 24.8 µM
O=C1COc2ccc(C(=O)CCl)cc2N1 | > 38 µM (inactive)
CCOC(=O)c1ccc(CC2S/C(=C(\C#N)C(C)=O)NC2=O)cc1 (stereo unspecified) | > 38 µM (inactive)
COC(=O)c1ccc(NC2=C(Cl)C(=O)OC2OC(=O)c2ccccc2)cc1 (stereo unspecified) | > 38 µM (inactive)
CC(=O)N(Cc1ccc(F)cc1)C1=C(NCc2ccccc2)C(=O)c2ccccc2C1=O | 2.18 µM
COc1ccc2nc3cccc(OC)c3nc2c1 | 16.1 µM
COC(=O)Cc1[nH]nc2c1C1(CCSCC1)C(C#N)=C(N)O2 | > 12 µM (inactive)
O=C(Oc1ccc(N2C(=O)C3C4CCC(C4)C3C2=O)cc1)c1ccco1 (stereo unspecified) | > 38 µM (inactive)
Cc1[nH][nH]c(=O)c1C(c1ccc(-c2ccc(Cl)c(Cl)c2)o1)c1c(C)[nH][nH]c1=O | 3.11 µM
Cc1[nH]n(-c2ccccc2)c(=O)c1/C=C1/C=c2ccccc2=N1 | > 38 µM (inactive)
Cc1ccc(C2=NN(C(=O)CCl)C(c3ccco3)C2)o1 (stereo unspecified) | 6.65 µM
CC(C)c1[nH]nc2c1C(Cc1ccccc1)C(C#N)=C(N)O2 (stereo unspecified) | > 38 µM (inactive)
CNCc1ccccc1Sc1ccc(O)c(O)c1 | > 38 µM (inactive)
O=c1c2ccccc2nc2n1CCS2(=O)=O | > 38 µM (inactive)
CCOC(=O)c1c(C)[nH]c2c1-c1ccccc1C(=O)C2=O | 5.39 µM
COC(=O)c1sc(-c2cccs2)cc1NC(=O)/C=C/C(=O)O | 35.9 µM
COc1ccc(-c2cc(CNC(=O)CCl)on2)cc1 | 16.1 µM
CC(=O)Oc1cc2c(cc1Cl)C1(CC(c3ccccc3Cl)O2)CC(C)(C)NC(=S)N1 (stereo unspecified) | 23.8 µM

Compound | AC50
Cc1ccc(Sc2ccc(NC(=O)CCl)cc2)cc1C | 0.699 µM
Clc1ccc(Sc2oc(/C=N/n3cnnc3)cc2Br)cc1 | > 38 µM (inactive)
Cn1[nH]c(CSc2ccc(Cl)cc2)cc1=O | 13.3 µM
CS(=O)(=O)N1CCC(Oc2ccccc2C(=O)N2CCCCC2CO)CC1 (stereo unspecified) | > 38 µM (inactive)
COc1ccccc1NC(=O)C1=C(C)Nc2nnnn2C1c1ccncc1 (stereo unspecified) | > 38 µM (inactive)
Cc1ccc(-n2nc(C)c3c2OC(N)=C(C#N)C3c2ccc(C)o2)cc1 (stereo unspecified) | 8.87 µM
Cc1ccccc1NC1=C/C(=N\S(=O)(=O)c2ccc(C(=O)O)cc2)c2ccccc2C1=O | 14.7 µM
CCCCCOP(=O)(OCCCCC)C1(NS(=O)(=O)c2ccccc2)C=CC(=O)c2ccccc21 (stereo unspecified) | 6.5 µM
O=C(NC1CCCC1)C(c1ccc(F)cc1)N(Cc1ccc(Cl)cc1)C(=O)CCl (stereo unspecified) | 5.55 µM
c1cncc(CNc2ncnc3sc4c(c23)CCCC4)c1 | > 38 µM (inactive)
COc1ccc(/C=N/NC(=O)c2nn(-c3ccccc3)c(=O)c3c(N)scc23)cc1 | > 38 µM (inactive)
O=C1C(=O)c2ccccc2-c2ccccc21 | 16.8 µM
COc1ccccc1-c1c(C)oc2cc(OC(=O)c3ccco3)ccc2c1=O | > 38 µM (inactive)
COc1ccc(CNC(=O)c2c(C)oc3c2C(=O)c2ccccc2C3=O)cc1 | 14.3 µM
COc1cccc(C(c2c(C)[nH]n(-c3ccccc3)c2=O)c2c(C)[nH]n(-c3ccccc3)c2=O)c1O | 2.35 µM
CCOc1cc(CNc2ccc3cn[nH]c3c2)ccc1OC | 12.7 µM
O=C(CCl)Nc1ccc(N=Nc2ccccc2)cc1 | 4.64 µM
COc1ccc(C2=NN(C(=O)/C=C/c3ccccc3)C(c3ccccc3)C2)c(OC(C)=O)c1 (stereo unspecified) | 2.24 µM
O=C1CS/C(=C\[N+](=O)[O-])N1c1ccc(OC(F)(F)F)cc1 | > 38 µM (inactive)
CCN(CC)c1ccc(/C=N/Nc2nc(C)cc(=O)[nH]2)c(O)c1 | > 38 µM (inactive)
Cc1ccccc1NC1=C(Cl)C(=O)OC1OC(=O)c1ccco1 (stereo unspecified) | > 38 µM (inactive)
Cc1ccc(S[C@@H](CCN2CC[C@H](C)CCC2=O)c2ccccc2)cc1 | 15.2 µM

Compound | AC50
COC(=O)c1cccc(N2C(=O)C(Cl)=C(N3CCOCC3)C2=O)c1 | > 38 µM (inactive)
O=c1c2ccccc2nc2n1CCC2 | 22.9 µM
COc1cc(/C=C2/C(=O)N(c3ccc(Br)cc3)N=C2C)cc(OC)c1OC | 7.07 µM
O=C1C=C(Nc2cccc3cccnc23)c2ccccc2C1=O | 24.2 µM
O=C(CN(c1cccc(Br)c1)S(=O)(=O)c1ccccc1)N/N=C/c1cc([N+](=O)[O-])ccc1O | > 38 µM (inactive)
COc1ccc(S(=O)(=O)/N=C2\C=C(Nc3ccc(O)cc3)C(=O)c3ccccc32)cc1 | 2.53 µM
Cc1noc(C)c1CSCC(=O)Oc1ccc(N(C)S(=O)(=O)c2ccccc2)cc1 | > 38 µM (inactive)
CCOC(=O)C1CCN(S(=O)(=O)c2c(Cl)ccc3nonc23)CC1 | 11.6 µM
CCOC(=O)c1c(CSC(=N)N)n(-c2ccccc2)c2cc(Br)c(OC(C)=O)cc12 | 23.6 µM
CCCc1[nH]nc2c1C(c1ccsc1)C(C#N)=C(N)O2 (stereo unspecified) | > 38 µM (inactive)
O=C1C(Cl)=C(N2CCC(C(=O)O)CC2)C(=O)c2ccccc21 | 1.41 µM
CN(C)c1ccc(NC(=O)c2ccncc2)c2ccccc12 | > 38 µM (inactive)
CCCCCCCCCCOC(=O)Cn1c(COc2cccc(C)c2)[n+](C)c2ccccc21 | 7.35 µM
Cc1nnc(N/N=C\c2ccc(-c3ccccc3[N+](=O)[O-])o2)n1N | > 38 µM (inactive)
O=C(O)CN1C(=O)/C(=C\c2cccc(OC(=O)c3ccco3)c2)SC1=S | > 38 µM (inactive)
Cc1[nH]n(C(C)(C)C)c(=O)c1Sc1ccccc1 | > 38 µM (inactive)
CCOC(=O)C1Nc2c(F)cc(C)cc2C2c3ccccc3CC12 (stereo unspecified) | 33.7 µM
CC1(N2CCOCC2)CC2(O)C(=[N+]1[O-])CCc1nonc12 (stereo unspecified) | 36.5 µM
CC(=O)c1cccc(NC(=O)CSc2ncc(C(=O)Nc3ccccc3)c(=O)n2C)c1 | > 12 µM (inactive)
O=C(CNC(=O)c1ccccc1)N/N=C/c1ccc([N+](=O)[O-])o1 | > 38 µM (inactive)
CCc1ccc(/C=C/C(=O)C2C(=O)c3ccccc3C2=O)cc1 | 7.06 µM
Cc1cccc(OCC(=O)Oc2ccc(Cl)cc2)c1 | > 12 µM (inactive)

Compound | AC50
Cc1cc(Sc2nnc(/N=C/N(C)C)s2)c2ccccc2n1 | > 38 µM (inactive)
Cc1cc(C(=O)CCl)c(C)n1CCc1ccc(Cl)cc1 | 4.99 µM
Cc1nc2c(-c3ccc(F)cc3)c(C)[nH]n2c(=O)c1Cl | > 38 µM (inactive)
CCOc1ccc(N2C(=O)/C(=C\c3ccc(OC)c(O)c3)S(=O)(=O)C2c2cccc([N+](=O)[O-])c2)cc1 (stereo unspecified) | > 38 µM (inactive)
C/C(=C/CCC(C)[C@H]1CC[C@@]2(C)C3=C(CC[C@]12C)[C@@]1(C)CCC(=O)C(C)(C)[C@@H]1CC3)C(=O)O (stereo partly specified) | 10.7 µM
Cc1ccc(OC(=O)c2ccc([N+](=O)[O-])cc2Cl)cn1 | > 38 µM (inactive)
CCCCCCOC(=O)c1ccc(OC(=O)c2cccnc2)cc1 | > 38 µM (inactive)
O=C(c1ccc(Cl)cc1)c1c[nH]c(C(=O)C(Cl)(Cl)Cl)c1 | 16.6 µM
O=C(c1c[nH]c(C(=O)C(Cl)(Cl)Cl)c1)c1ccc(F)cc1Cl | 30.1 µM
S=C(Nc1ccc2nsnc2c1)N1CCCCCC1 | 9.37 µM
O=C(NCc1cccnc1)/C(=C\c1ccc(-c2cccc(Cl)c2)o1)S(=O)(=O)c1ccccc1 | 26.9 µM
Cc1cc(C)c(C#N)c(SCc2[nH]nc3c2C(c2ccc(F)cc2)C(C#N)=C(N)O3)n1 (stereo unspecified) | 29.2 µM
CC(C)(C)NC(=O)C(c1ccc(Cl)cc1)N(Cc1ccco1)C(=O)CCl (stereo unspecified) | 11.6 µM
CCN(C(=O)CSc1ncccc1C(=O)Oc1cccc([N+](=O)[O-])c1)c1cccc(C)c1 | > 38 µM (inactive)
COc1ccc(N(Cc2cc(=O)[nH]c3ccccc23)C(=O)CCl)cc1 | 8.33 µM
CCC(CNc1cc(OC)cc2cccnc12)NC1CCCCC1 (stereo unspecified) | 6.86 µM
CC1CCCCC1NC(=O)NC(=O)CCl (stereo unspecified) | 39.8 µM
CCN(CC)S(=O)(=O)c1cc(NC(=O)Cn2ncc(Cl)c(Cl)c2=O)ccc1C | 38.7 µM
Cc1[nH]nc2c1C(c1cccs1)C(C#N)=C(N)O2 (stereo unspecified) | > 38 µM (inactive)
CCOc1cc(/C=C2/SC(=S)N(Cc3ccccc3)C2=O)ccc1O | > 38 µM (inactive)
CCCc1[nH]nc2c1C(c1cccc(OC)c1)C(C#N)=C(N)O2 (stereo unspecified) | > 38 µM (inactive)
Cc1cc(N/N=C/c2ccc(O)c(C)c2O)nc(-c2ccccc2O)n1 | > 38 µM (inactive)

Compound | AC50
CC(=O)Nc1ccc(NC(=O)c2nc(S(=O)(=O)Cc3cccc(C)c3)ncc2Cl)cc1 | > 38 µM (inactive)
CC1=NN(c2ccccc2)C(=O)/C1=C/c1cn(C)c2ccccc12 | > 38 µM (inactive)
O=C1CCN(S(=O)(=O)c2ccccc2)N1 | > 38 µM (inactive)
O=C(CCl)Nc1cc(-c2ccccc2)nn1-c1ccccc1 | 9.05 µM
CCCc1c(-c2ccc(O)cc2)nn(-c2ccc(O)cc2)c1-c1ccc(O)cc1 | 4.37 µM
CCCc1c(C)c2c(C)[nH]nc2oc1=O | > 38 µM (inactive)
COc1ccc(NC(=O)Cn2ncc(Cl)c(Cl)c2=O)cc1S(=O)(=O)N1CCOCC1 | > 38 µM (inactive)
COc1ccc(N2C(=O)C(Cl)=C(N3CCN(Cc4ccccc4)CC3)C2=O)cc1 | > 38 µM (inactive)
COc1cccc(NC(=O)CSc2c3c(nc4ccccc24)CCCC3)c1 | 39.5 µM
O=C(Cc1ccccc1Cl)NC1(O)C(=O)c2ccccc2C1=O | 7.63 µM
Cc1ccccc1-c1cc2c(nn1)-c1ccccc1C2=O | 8.26 µM
O=C1C=C(N2CCCCC2)c2ccccc2C1=O | 10.4 µM
COc1ccc(OC)c(Nc2cc3ccccc3c(=O)[nH]2)c1 | 1.92 µM
COC(=O)C[C@]1(C(=O)OC)CN(C#N)N(c2ccc(Cl)cc2)C12c1ccccc1-c1ccccc12 | 14.3 µM
CC(=O)Nc1ccc(NC(=O)CSc2ncc(C(=O)Nc3ccccc3)c(=O)n2C)cc1 | 1.04 µM
O=C(CSCc1ccc([N+](=O)[O-])cc1)N/N=C/c1cccnc1 | > 38 µM (inactive)
CCCCCCCCOC(=O)c1c(CSC(=N)N)n(C)c2cc(Br)c(OC(C)=O)cc12 | 14.5 µM
N#CC1=C(N)N(c2ccccc2)C(c2cccc([N+](=O)[O-])c2)C1(C#N)C#N (stereo unspecified) | > 38 µM (inactive)
